Data reported in patent US20210113586A1, “NEW USE AND METHODS OF MODULATING IMMUNE RESPONSES” (DIAMYD MEDICAL AB, priority 2018, published 2021).

Key:
Assay type in all cases: cell-based, human
responder CD4+ T cells [1] = assay: Proliferation of anti-CD3 stimulated GABA responder CD4+ T cells from ND individuals; settings: for effect of agonist on proliferation: 100 nM, FIG. 3f
Method: (§1) Peripheral Blood Mononuclear cells (PBMCs) are isolated from blood from donors diagnosed with Type-1 diabetes and healthy controls. Alternatively, CD4-positive cells (T-cells) are further isolated from PBMCs by e.g. MACS beads, FACS or similar technology. […] A reasonable replication, such as 3 cultures of each condition, is performed. A normalized proliferation value for each culture is then calculated by a standard proliferation measurement method, such as by CFSE staining or radioactive thymidine incorporation (requiring additional factors be added during culture) or by staining for proliferation markers.
(§2) In the FIG. 1, the proliferation of cells retrieved from 13 T1D subjects and 15 healthy controls were inspected. […] A normalized proliferation index was calculated for each culture.
(§3) The proliferation of freshly isolated human PBMCs or CD4^+ T cells was evaluated with MTT (3-(4,5-Dimethylthiazol-2-yl)-2,5-Diphenyltetrazolium Bromide) assay (Ring et al., 2012). Cells were suspended in complete medium (RPMI 1640 supplemented with 2 mM glutamine, 25 mM HEPES, 10% heat inactivated fetal bovine serum, 100 U/ml penicillin, 10 mg/ml streptomycin, 5 mM R-mercaptoethanol) in a concentration 1 million cells per milliliter. The assay was performed in 96-well plates in duplicates or triplicates, where each well was pre-coated with 3 μg/ml anti-CD3 antibody for 3-5 h at 37° C. Each well was loaded with 100,000 cells. Drugs were added to the wells at the relevant concentrations. The plate was incubated for 68 h at 37° C. (95% O2, 5% CO2) and then, a media-soluble tetrazolium dye MTT was added to a final concentration of 1 mM after which the plate was incubated for additional 4 h. The plate was then centrifuged at 2,000 RPM for 10 min to pellet the insoluble purple formazan crystals. The supernatant culture media was collected, stored at −80° C. and used for analysis of cytokines using the multiplex proximity extension assay (PEA). The formazan crystal pellet was dissolved in DMSO and the plate was read within 10 min using a Multiskan MS plate reader (Labsystems) at 550 nm. The optical density value was used as the proliferation index value. Drugs were purchased from Sigma-Aldrich or Tocris (Bristol, UK).

responder CD4+ T cells [2] = assay: Multiplex PEA of cytokines released into culture medium by responder CD4+ T cells; settings: GABA plus 100 μM picrotoxin
Method: as §3
Plasma samples, and culture media samples that were collected from plate wells at the end of the proliferation assay, were analyzed by multiplex PEA with an Olink Inflammation […] panel, targeting 92 proteins related to inflammation (Olink Proteomics, Uppsala, Sweden) as previously described (Edvinsson et al., 2017, Assarsson et al., 2014, Larsson et al., 2015, Larssen et al., 2017). Briefly, 1 μl of sample (plasma samples or cell culture media samples) or negative control was mixed with 3 μl probe solution containing a set of 92 paires DNA-oligonucleotide-conjugated antibodies. Upon recognition of a target protein by a pair of probes, the DNA oligonucletodies on the antibodies are brought in proximity and hybridize to each other, followed by enzymatic DNA polymerization to form a new DNA molecule. The newly formed DNA molecule is then amplified and quantified using a microfluidic real-time qPCR, BioMark™ HD (Fluidigm, South San Francisco, Calif., USA). The generated quantification cycle (Cq) values are normalized against spiked-in controls to convert Cq values to Normalized Protein eXpression (NPX) value on log2 scale. NPX is an arbitrary unit, which is positively correlated to protein concentration. These NPX data were then converted to linear data, using the formula 2^NPX, prior to further statistical analysis. Limit of detection (LOD) for each protein was defined as three standard deviations above the background. Proteins with levels below LOD were excluded from further data analysis.

GABAA receptors = assay: Patch-clamp single-channel current recording in CD4+ T cells; settings: picrotoxin 100 μM; FIG. 3i
Method: GABA-activated currents were recorded by the patch-clamp technique as previously described (Bjurstom et al., 2008, Jin et al., 2011a). Extracellular recording solution contained (in mM): 145 NaCl, 3 KCl, 1 CsCl, 1 CaCl2, 1 MgCl2, 10 glucose and 10 TES; the pH was adjusted to 7.4 with NaOH. To record in the whole-cell configuration, the pipette solution contained (in mM): 136 CsCl, 20 KCl, 1 MgCl2, 3 MgATP and 10 TES; pH was adjusted to 7.3 with CsOH. The pipette solution for the cell-attached configuration contained (in mM): 69 NaCl, 5 KCl, 75 CsCl, 1 CaCl2, 1 MgCl2 and 10 TES; pH was adjusted to 7.4 with NaOH. […] The pipette potential (Vp) was −80 mV (hyperpolarizing) in the whole-cell configuration and −60 mV (depolarizing) in the cell-attached configuration.

[3] = system: PBMCs from T1D individuals; assay: Proliferation of anti-CD3 stimulated PBMCs from T1D donors; settings: GABA plus picrotoxin
Method: as §1, §2
as §3, with “The optical density value was used as the proliferation index value. Drugs were purchased from Sigma-Aldrich or Tocris (Bristol, UK).” left out

[4] = FIG. 5b-c legend, GABA concentration and cell group not given

Compound: NCc1cc(=O)[nH]o1 [muscimol]
- effect of agonist on proliferation (responder CD4+ T cells [1]): inhibited the proliferation similar to GABA

Compound: NC/C=C/C(=O)O [TACA]
- effect of agonist on proliferation (responder CD4+ T cells [1]): inhibited the proliferation similar to GABA

Compound: CCOC(OCC)P(=O)(O)CCCNCc1ccc(Cl)c(Cl)c1 [CGP52432]
- effect of antagonist on proliferation (responder CD4+ T cells [1]; 50 μM, FIG. 3e): ineffective

Compound: picrotoxin [reference compound]
- CCL19, 2^NPX normalized to controls, mean and SEM (responder CD4+ T cells [2]; [4]): 1.72±0.74
- CCL20, 2^NPX normalized to controls, mean and SEM (responder CD4+ T cells [2]; [4]): 1.43±0.51
- CXCL11, 2^NPX normalized to controls, mean and SEM (responder CD4+ T cells [2]; [4]): 1.55±0.51
- effect on GABA inhibition of cytokine release (responder CD4+ T cells [2]; FIG. 5b, c): reversed
- effect on GABA-activated single-channel currents (GABAA receptors): blocked
- effect on GABA-reduced proliferation (responder CD4+ T cells [1]; Example 1, FIG. 1B, GABA plus picrotoxin): reversed
- effect on 500 nM GABA-induced inhibition of proliferation (responder CD4+ T cells [1]; picrotoxin, FIG. 3e): partially reversed
- effect on GABA-reduced proliferation ([3]; Example 1, FIG. 1D): reversed
- effect on GABA inhibition of proliferation ([3]; Example 2, FIG. 3b): reversed

Compound: NCC(CC(=O)O)c1ccc(Cl)cc1 (stereo not shown) [baclofen]
- effect of agonist on proliferation (responder CD4+ T cells [1]): ineffective
